Several values for one entry are separate records, joined by “and”; a condition that tells them apart may be missing. Equal values may be shown once.
System: 377384-186-R-J1-PDC complex spheroid viability
Test: Anticancer human tumor 377384-186-R-J1-PDC patient-derived pancreatic carcinoma cell line growth inhibition [CLK]
Details: for viability, T/C: stronger effect = lower value
In short: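 Multi-cell-type spheroids combined patient-derived tumor cells with HUVEC endothelial cells and human mesenchymal stem cells. Paired agents were dosed in half-log steps down from about clinical Cmax, or from 10 microM where Cmax was unknown.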

[1] = curve of first compound, second compound 0.0316 µM
[2] = curve of first compound, second compound 0.1 µM
[3] = curve of first compound, second compound 0.316 µM
[4] = curve of first compound, second compound 1 µM
[5] = curve of first compound, second compound 3.16 µM
[6] = curve of first compound, second compound 10 µM
[7] = second compound 0.0316 µM, first compound 0.0316 µM
[8] = second compound 0.0316 µM, first compound 0.1 µM
[9] = second compound 0.0316 µM, first compound 0.316 µM
[10] = second compound 0.0316 µM, first compound 1 µM
[11] = second compound 0.0316 µM, first compound 3.16 µM
[12] = second compound 0.0316 µM, first compound 10 µM
[13] = second compound 0.1 µM, first compound 0.0316 µM
[14] = second compound 0.1 µM, first compound 0.1 µM
[15] = second compound 0.1 µM, first compound 0.316 µM
[16] = second compound 0.1 µM, first compound 1 µM
[17] = second compound 0.1 µM, first compound 3.16 µM
[18] = second compound 0.1 µM, first compound 10 µM
[19] = second compound 0.316 µM, first compound 0.0316 µM
[20] = second compound 0.316 µM, first compound 0.1 µM
[21] = second compound 0.316 µM, first compound 0.316 µM
[22] = second compound 0.316 µM, first compound 1 µM
[23] = second compound 0.316 µM, first compound 3.16 µM
[24] = second compound 0.316 µM, first compound 10 µM
[25] = second compound 1 µM, first compound 0.0316 µM
[26] = second compound 1 µM, first compound 0.1 µM
[27] = second compound 1 µM, first compound 0.316 µM
[28] = second compound 1 µM, first compound 1 µM
[29] = second compound 1 µM, first compound 3.16 µM
[30] = second compound 1 µM, first compound 10 µM
[31] = second compound 3.16 µM, first compound 0.0316 µM
[32] = second compound 3.16 µM, first compound 0.1 µM
[33] = second compound 3.16 µM, first compound 0.316 µM
[34] = second compound 3.16 µM, first compound 1 µM
[35] = second compound 3.16 µM, first compound 3.16 µM
[36] = second compound 3.16 µM, first compound 10 µM
[37] = second compound 10 µM, first compound 0.0316 µM
[38] = second compound 10 µM, first compound 0.1 µM
[39] = second compound 10 µM, first compound 0.316 µM
[40] = second compound 10 µM, first compound 1 µM
[41] = second compound 10 µM, first compound 3.16 µM
[42] = second compound 10 µM, first compound 10 µM
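Further: spheroids exposed to agents for 7 days before reading.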
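Wherever viability, T/C is given: luminescence signal used as a stand-in for viable cells.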

SMILES: CCCS(=O)(=O)Nc1ccc(F)c(C(=O)c2c[nH]c3ncc(-c4ccc(Cl)cc4)cc23)c1F + CNC(=O)c1ccc(Nc2nc(OC3CCCC3)c3c(-c4ccc5nc(C)oc5c4)c[nH]c3n2)c(OC)c1
- IC50 [1]: > 10 µM
- IC50 [2]: 1.62 µM
- IC50 [3]: < 0.0316 µM
- IC50 [4]: < 0.0316 µM
- IC50 [5]: < 0.0316 µM
- IC50 [6]: < 0.0316 µM
- viability, T/C [7]: 103%
- viability, T/C [8]: 118%
- viability, T/C [9]: 115%
- viability, T/C [10]: 123%
- viability, T/C [11]: 107%
- viability, T/C [12]: 52.5%
- viability, T/C [13]: 65.1%
- viability, T/C [14]: 70%
- viability, T/C [15]: 49.1%
- viability, T/C [16]: 59.7%
- viability, T/C [17]: 44%
- viability, T/C [18]: 37.2%
- viability, T/C [19]: 19.9%
- viability, T/C [20]: 22.5%
- viability, T/C [21]: 23.6%
- viability, T/C [22]: 22.6%
- viability, T/C [23]: 32.6%
- viability, T/C [24]: 24.3%
- viability, T/C [25]: 18.9%
- viability, T/C [26]: 20.6%
- viability, T/C [27]: 23.6%
- viability, T/C [28]: 27%
- viability, T/C [29]: 30.7%
- viability, T/C [30]: 24.8%
- viability, T/C [31]: 19.8%
- viability, T/C [32]: 25.4%
- viability, T/C [33]: 23.9%
- viability, T/C [34]: 28%
- viability, T/C [35]: 29%
- viability, T/C [36]: 23.4%
- viability, T/C [37]: 21.5%
- viability, T/C [38]: 23.3%
- viability, T/C [39]: 26.8%
- viability, T/C [40]: 29.1%
- viability, T/C [41]: 31.1%
- viability, T/C [42]: 29%

SMILES: CC1COCCN1c1cc(C2(S(C)(=N)=O)CC2)nc(-c2ccnc3[nH]ccc23)n1 (configuration not stated) + CNC(=O)c1ccc(Nc2nc(OC3CCCC3)c3c(-c4ccc5nc(C)oc5c4)c[nH]c3n2)c(OC)c1
- IC50 [1]: 2.6 µM
- IC50 [2]: 0.232 µM
- IC50 [3]: < 0.0316 µM
- IC50 [4]: < 0.0316 µM
- IC50 [5]: < 0.0316 µM
- IC50 [6]: < 0.0316 µM
- viability, T/C [7]: 105%
- viability, T/C [8]: 110%
- viability, T/C [9]: 106%
- viability, T/C [10]: 83.5%
- viability, T/C [11]: 43.5%
- viability, T/C [12]: 17.4%
- viability, T/C [13]: 62.4%
- viability, T/C [14]: 56.8%
- viability, T/C [15]: 52%
- viability, T/C [16]: 41.1%
- viability, T/C [17]: 23.7%
- viability, T/C [18]: 19.9%
- viability, T/C [19]: 21.3%
- viability, T/C [20]: 23.4%
- viability, T/C [21]: 18.6%
- viability, T/C [22]: 16.9%
- viability, T/C [23]: 13.8%
- viability, T/C [24]: 9.16%
- viability, T/C [25]: 20.6%
- viability, T/C [26]: 20.9%
- viability, T/C [27]: 22.3%
- viability, T/C [28]: 17.9%
- viability, T/C [29]: 12%
- viability, T/C [30]: 7.93%
- viability, T/C [31]: 20.2%
- viability, T/C [32]: 21.2%
- viability, T/C [33]: 20.6%
- viability, T/C [34]: 18.9%
- viability, T/C [35]: 14.1%
- viability, T/C [36]: 9.68%
- viability, T/C [37]: 20.4%
- viability, T/C [38]: 19%
- viability, T/C [39]: 21.5%
- viability, T/C [40]: 19.4%
- viability, T/C [41]: 12.4%
- viability, T/C [42]: 9.21%

SMILES: C#Cc1c(F)ccc2cc(O)cc(-c3ncc4c(N5CC6CCC(C5)N6)nc(OCC56CCCN5CC(F)C6)nc4c3F)c12 (configuration not stated)
- viability, T/C (compound 0.0316 µM): 21.7% and 21.4%
- viability, T/C (compound 0.1 µM): 9.43% and 10.6%
- viability, T/C (compound 0.316 µM): 5.31% and 3.97%
- viability, T/C (compound 1 µM): 4.69% and 4.41%
- viability, T/C (compound 3.16 µM): 2.25% and 2.02%
- viability, T/C (compound 10 µM): 1.85% and 1.77%
- IC50 (curve of compound): < 0.0316 µM

SMILES: COc1ccc([C@@H](O)c2cc(-c3ncnc4cc(N5CCOCC5)ccc34)c(F)cc2Cl)nn1
- viability, T/C (compound 0.0316 µM): 88.4% and 91.3%
- viability, T/C (compound 0.1 µM): 92.5% and 94.2%
- viability, T/C (compound 0.316 µM): 73% and 78.6%
- viability, T/C (compound 1 µM): 66.6% and 61.9%
- viability, T/C (compound 3.16 µM): 59.3% and 44.2%
- viability, T/C (compound 10 µM): 35.7% and 31%
- IC50 (curve of compound): 4.38 µM and 2.1 µM

SMILES: CCCS(=O)(=O)Nc1ccc(F)c(C(=O)c2c[nH]c3ncc(-c4ccc(Cl)cc4)cc23)c1F
- viability, T/C (compound 0.0316 µM): 94.9% and 92.5%
- viability, T/C (compound 0.1 µM): 86% and 102%
- viability, T/C (compound 0.316 µM): 120% and 114%
- viability, T/C (compound 1 µM): 126% and 124%
- viability, T/C (compound 3.16 µM): 114% and 105%
- viability, T/C (compound 10 µM): 59.8% and 57.9%
- IC50 (curve of compound): > 10 µM

SMILES: COc1c(OCCCN2CCOCC2)ccc2c3n(c(=NC(=O)c4cnc(N)nc4)nc12)CCN3
- viability, T/C (compound 0.00316 µM): 89.6% and 77.6%
- viability, T/C (compound 0.01 µM): 72.4% and 61.6%
- viability, T/C (compound 0.0316 µM): 50% and 52.3%
- viability, T/C (compound 0.1 µM): 34.4% and 30.3%
- viability, T/C (compound 0.316 µM): 22.4% and 22.7%
- viability, T/C (compound 1 µM): 14.3% and 13.8%
- IC50 (curve of compound): 0.0344 µM and 0.0283 µM

Reference: PubChem BioAssay AID2060616 (Molecular Pharmacology Branch, DTP, NCI, 2025)
